Measurements reported in US20080019968A1, “DETECTION, PREVENTION AND TREATMENT OF BREAST CANCER” (The scripps Reasearch Institute, priority 2004, published 2008).

B1: Ceruloplasmine (protein, UniProt P00450 20-1065, looked up)
Ceruloplasmin: KEKHYYIGIIETTWDYASDHGEKKLISVDTEHSNIYLQNGPDRIGRLYKKALYLQYTDETFRTTIEKPVWLGFLGPIIKAETGDKVYVHLKNLASRPYTFHSHGITYYKEHEGAIYPDNTTDFQRADDKVYPGEQYTYMLLATEEQSPGEGDGNCVTRIYHSHIDAPKDIASGLIGPLIICKKDSLDKEKEKHIDREFVVMFSVVDENFSWYLEDNIKTYCSEPEKVDKDNEDFQESNRMYSVNGYTFGSLPGLSMCAEDRVKWYLFGMGNEVDVHAAFFHGQALTNKNYRIDTINLFPATLFDAYMVAQNPGEWMLSCQNLNHLKAGLQAFFQVQECNKSSSKDNIRGKHVRHYYIAAEEIIWNYAPSGIDIFTKENLTAPGSDSAVFFEQGTTRIGGSYKKLVYREYTDASFTNRKERGPEEEHLGILGPVIWAEVGDTIRVTFHNKGAYPLSIEPIGVRFNKNNEGTYYSPNYNPQSRSVPPSASHVAPTETFTYEWTVPKEVGPTNADPVCLAKMYYSAVEPTKDIFTGLIGPMKICKKGSLHANGRQKDVDKEFYLFPTVFDENESLLLEDNIRMFTTAPDQVDKEDEDFQESNKMHSMNGFMYGNQPGLTMCKGDSVVWYLFSAGNEADVHGIYFSGNTYLWRGERRDTANLFPQTSLTLHMWPDTEGTFNVECLTTDHYTGGMKQKYTVNQCRRQSEDSTFYLGERTYYIAAVEVEWDYSPQREWEKELHHLQEQNVSNAFLDKGEFYIGSKYKKVVYRQYTDSTFRVPVERKAEEEHLGILGPQLHADVGDKVKIIFKNMATRPYSIHAHGVQTESSTVTPTLPGETLTYVWKIPERSGAGTEDSACIPWAYYSTVDQVKDLYSGLIGPLIVCRRPYLKVFNPRRKLEFALLFLVFDENESWYLDDNIKTYSDHPEKVNKDDEEFIESNKMHAINGRMFGNLQGLTMHVGDEVNWYLMGMGNEIDLHTVHFHGHSFQYKHRGVYSSDVFDIFPGTYQTLEMFPRTPGIWLLHCHVTDHIHAGMETTYTVLQNEDTKSG

Legend:
chST6GalNAc-I = target: T1, chST6GalNAc-I (Gallus gallus, UniProt Q92183); assay: chST6GalNAc-I activity on small acceptor molecules; type: biochemical, chicken; conditions: α-D-galacto derivatives as acceptors
T1 construct: made in house; host or cells: insect cells
Text: The inventors have previously reported the cloning, expression, and characterization of chicken ST6GalNAc-I and its use in preparative synthesis of the O-linked sialoside antigens, STn-, α(2-6)SiaT-, α(2-3)SiaT- and Di-SiaT-antigen. Blixt, O.; Allin, K.; Pereira, L.; Datta, A. and Paulson, J. C., J. Am. Chem. Soc. 2002, 124, 5739-5746. Briefly, the recombinant enzyme was expressed in insect cells and purified by CDP-sepharose affinity chromatography to generate approximately 10 U/L of cell culture.

[1] = test system: antibodies in sera of metastatic breast cancer patients; assay: Glycan array binding of sera of metastatic breast cancer patients; set-up: species or system human; conditions: sera diluted 1:25; for binding of antibodies from breast cancer patients to glycans: 9 metastatic breast cancer patients, IgG, IgM and IgA detected; for level of serum antibodies against the glycan in MBC patients compared to healthy individuals: 9 MBC patients vs ten healthy individuals
Protocol: Individual (not pooled) sera were collected from 9 patients who were diagnosed with metastatic breast cancer (MBC). Blood samples were collected before treatment, so that therapeutic intervention would not interfere with patient immune responses. One patient with breast cancer but with good prognosis (IDC, Stage 1) was also included in the study. As control, or “healthy” sera, sera from ten healthy individuals, 5 female and 5 male, with no known malignancies was collected.
Sera were diluted 1:25 with PBS containing 3% BSA, and placed on the glycan array slide in humidified chamber at room temperature for 90 min. The glycan array slide was then rinsed gently with PBS/0.05% Tween, incubated with biotinylated goat antibody against human IgG, IgM and IgA, rinsed in PBS/0.05% Tween, and incubated with streptavidin-Alexa488 fluorescent dye. Following rinses in PBS/0.05% Tween and H2O, glycan array slides were dried and scanned using the commercial DNA array scanner. […] Signal to background was typically greater 50:1 and no background subtractions were performed. Data were plotted using MS Excel software.

[2] = test system: Human anti-HIV 2G12 monoclonal antibody; assay: Glycan array binding of 2G12; conditions: 2G12 (30 μg/mL) pre-complexed with goat anti-human-IgG-FITC (15 μg/mL)
Text: Glycan array fabrication.
Glycan Binding Protein binding assay.
Image acquisition and signal processing. […] Data were plotted using MS Excel software.

Con A = Con A (Canavalia ensiformis, UniProt P02866); conditions: printing times up to 5 hours
Protocol: Glycan Binding Protein binding assay. Printed slides were analyzed without any further modification of the surface. Slides were incubated in either a one step procedure with labeled proteins, or a sandwich procedure in which the bound glycan binding protein (GBP) was overlaid with labeled secondary antibodies or GBP's pre-complexed with labeled antibodies. GBP's were added at a concentration of 5-50 μg/mL in buffer (usually PBS containing 0.005-0.5% Tween-20). Secondary antibodies (10 μg/mL in PBS) were overlaid on bound GBP. GBP-antibody pre-complexes were prepared in a molar ratio of 1:0.5:0.25 (5-50 μg/mL) for GBP:2° antibody:3° antibody, respectively (15 min on ice). […] Slides were subsequently washed by successive rinses in (i) PBS-Tween (0.05%), (ii) PBS and (iii) de-ionized water, then immediately subjected to imaging.
Image acquisition and signal processing. Fluorescence intensities were detected using a ScanArray 5000 (Perkin Elmer, Boston, Mass.) confocal scanner and image analyses were carried out using ImaGene image analysis software (BioDiscovery Inc, El Segundo, Calif.).
Binding of fluorescein-labeled concanavalin A (con A) was used as a measure of ligand coupling.

T1 sequence (Q92183 whole entry): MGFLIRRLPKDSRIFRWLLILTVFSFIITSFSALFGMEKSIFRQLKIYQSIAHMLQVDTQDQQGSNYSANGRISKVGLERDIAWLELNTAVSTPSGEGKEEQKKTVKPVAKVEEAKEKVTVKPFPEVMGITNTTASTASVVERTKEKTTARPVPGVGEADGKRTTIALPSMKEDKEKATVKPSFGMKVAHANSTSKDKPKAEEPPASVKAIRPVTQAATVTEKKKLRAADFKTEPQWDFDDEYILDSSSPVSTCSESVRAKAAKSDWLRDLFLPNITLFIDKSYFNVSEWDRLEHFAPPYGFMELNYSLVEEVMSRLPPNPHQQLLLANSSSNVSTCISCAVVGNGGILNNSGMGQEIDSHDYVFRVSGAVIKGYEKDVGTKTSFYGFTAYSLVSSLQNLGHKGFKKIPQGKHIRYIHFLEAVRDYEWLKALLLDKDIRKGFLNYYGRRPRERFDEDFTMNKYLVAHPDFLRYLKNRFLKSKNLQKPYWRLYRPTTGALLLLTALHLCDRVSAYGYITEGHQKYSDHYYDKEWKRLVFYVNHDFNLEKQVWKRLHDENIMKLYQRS

Molecule | binding of antibodies from breast cancer patients to glycans [1] | further results
CC(=O)N[C@H]1C(O)O[C@H](CO)[C@H](O)[C@@H]1O (stereo partly drawn) [D-GalNAc] |  | chST6GalNAc-I activity, cpm (chST6GalNAc-I): 0 cpm; chST6GalNAc-I activity, nmol/mg x min^−1 (chST6GalNAc-I): 0.00 nmol/mg x min^−1
(Ab4GNb)3#sp1 Tri-LacNAc [glycan 9] | will also bind | 
Ab3ANb4[NNa3]Ab4Gb#sp1 GM1 [glycan 58] | bind | level of serum antibodies against the glycan in MBC patients compared to healthy individuals [1]: higher than in the healthy individuals
Ab4GNb3Ab4GNb#sp1 LacNAc-LacNAc [glycan 76] | will also bind | 
Ab4GNb3Ab4[Fa3]GNb3Ab4[Fa3]GNb#sp1 LacNAc-LeX-LeX [glycan 73] | will also bind | 
Fa2Ab3Anb3Aa4Ab4G#sp3 Globo-H [glycan 97] | bind | level of serum antibodies against the glycan in MBC patients compared to healthy individuals [1]: higher than in the healthy individuals
Fa2Ab4GNb3Ab4GNb3Ab4GNb#sp1 H-type2-LacNAc-LacNAc [glycan 107] | will also bind | 
Fa2Ab4GNb3Ab4GNb#sp1 H-type-2-LacNAc [glycan 106] | will also bind | 
GNb3Ab4GNb#sp1 GlcNAcβ3LacNAc [glycan 124] | will also bind | 
GNb3Ab4Gb#sp1 LNT-2 [glycan 123] | bind | level of serum antibodies against the glycan in MBC patients compared to healthy individuals [1]: higher than in the healthy individuals
Ma2Ma3[Ma2Ma6]Ma#sp3 [glycan 136] |  | binding of 2G12 to glycans on the array [2]: strong binding; Rel. spec. (relative binding activity of 2G12) ([2]; mannose containing glycans on the array): +++ (+++ >25,000); variation in maximal binding of con A (Con A): less than 10%
Man-9#aa Man9-aminoacid [glycan 145] |  | binding of 2G12 to glycans on the array [2]: smaller level of binding
NJa6ANa#sp2 Neu5Gc6GalNAc (STn) [glycan 155] | bind | 
NNa3Ab4GNb3Ab4GNb3Ab4GNb#sp1 3′Sialyl-tri-LacNAc [glycan 180] | will also bind | 
NNa3Ab4GNb3Ab4GNb#sp1 3′SialylDiLacNAc [glycan 179] | will also bind | 
NNa3Ab4[Fa3]GNb3Ab4GNb#sp1 SLeXLacNAc [glycan 174] | will also bind | 
NNa6ANa#sp2 6SiaβGalNAc [glycan 190] | bind | level of serum antibodies against the glycan in MBC patients compared to healthy individuals [1]: significantly higher levels
NNa6Ab4GNb3Ab4GNb#sp1 6SiaLacNAc-LacNAc [glycan 189] | will also bind | 
NNa6Ab4GNb3Ab4[Fa3]GNb3Ab4[Fa3]GNb#sp1 6Sia-LacNAc-LeX-LeX [glycan 188] | will also bind | 
B1 | bind | level of serum antibodies against the glycan in MBC patients compared to healthy individuals [1]: significantly higher levels
